Laboratory results as given in patent US11045457B2, “Piperidinyl-3-(aryloxy)propanamides and propanoates” (priority 2018, dated 2021).

Legend:
SSTR1 = SSTR1 (Homo sapiens (Human), UniProt P30872); test: SSTR1 I-125 somatostatin competition binding assay for selectivity versus SSTR4 (membranes from CHO-K1 cells overexpressing SSTR1); details: competition with I-125 labeled somatostatin, CHO-K1 SSTR1 membranes;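 note: Filter-based radioligand binding, bound label counted by scintillation after 60 min incubation at room temperature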
SSTR1, sequence (P30872 whole entry): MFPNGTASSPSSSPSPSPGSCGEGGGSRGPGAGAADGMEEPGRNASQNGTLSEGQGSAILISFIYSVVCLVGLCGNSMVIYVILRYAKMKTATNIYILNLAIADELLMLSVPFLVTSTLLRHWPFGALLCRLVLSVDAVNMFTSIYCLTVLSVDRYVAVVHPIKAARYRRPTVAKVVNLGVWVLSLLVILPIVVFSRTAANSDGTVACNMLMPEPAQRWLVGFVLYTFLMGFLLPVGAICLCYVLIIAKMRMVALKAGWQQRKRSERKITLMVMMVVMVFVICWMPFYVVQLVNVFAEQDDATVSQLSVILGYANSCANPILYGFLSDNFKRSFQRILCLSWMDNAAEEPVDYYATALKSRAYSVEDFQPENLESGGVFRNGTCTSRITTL
Description: Membranes from CHO-K1 cells overexpressing SSTR1 are purchased from Perkin Elmer (catalog number ES-520-M400UA). […] Then 10 μg of SSTR1 membranes in 50 μL assay buffer are added per well. The plate is incubated for 60 minutes at room temperature. […] The contents of the assay plate are transferred to filters with a TomTech harvester and washed 5 times with 20 mM HEPES, 100 mM NaCl. […] The scintillator sheets are melted to the filters using a heat block. The filters are then read in a MicroBeta scintillation counter. Binding Ki curves are generated using Activity Base for Screening Data Management and the results are reported as pIC50.

SSTR4 [1] = biological target: T1, SSTR4 (Homo sapiens (Human), UniProt P31391); test: SSTR4 I-125 somatostatin competition binding assay (membranes from CHO-K1 cells overexpressing SSTR4); details: competition with I-125 labeled somatostatin
T1 sequence (P31391 whole entry): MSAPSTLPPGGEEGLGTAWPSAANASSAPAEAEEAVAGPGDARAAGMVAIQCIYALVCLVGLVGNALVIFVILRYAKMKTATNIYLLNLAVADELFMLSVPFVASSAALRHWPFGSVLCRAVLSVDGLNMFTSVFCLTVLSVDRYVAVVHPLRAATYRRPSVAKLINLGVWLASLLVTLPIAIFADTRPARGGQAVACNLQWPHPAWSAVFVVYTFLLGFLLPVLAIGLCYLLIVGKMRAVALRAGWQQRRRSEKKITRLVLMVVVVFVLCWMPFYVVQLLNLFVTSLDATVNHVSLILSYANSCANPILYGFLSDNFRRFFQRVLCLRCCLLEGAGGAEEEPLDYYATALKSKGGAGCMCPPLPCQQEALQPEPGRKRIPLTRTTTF
Description: Membranes from CHO-K1 cells overexpressing SSTR4 are purchased from Perkin Elmer (catalog number ES-524-M400UA). Test compounds are suspended in DMSO and then diluted in assay buffer (25 mM HEPES pH 7.4, 10 mM MgCl2, 1 mM CaCl2), 0.5% BSA) plus 0.2 nM I-125 labeled somatostatin (Perkin Elmer catalog number NEX389). […] Then 1 μg of SSTR4 membranes in 50 μL assay buffer are added per well. The Plate is incubated for 60 minutes at room temperature. FilterMat A filters (Perkin Elmer catalog number 1450-421) are pre-soaked in 0.5% PEI (Sigma catalog number P3143). The contents of the assay plate are transferred to filters with a TomTech harvester and washed 5 times with 20 mM HEPES, 100 mM NaCl. The filters are dried in a microwave oven then transferred to sample bag containing a scintillator sheet (Perkin Elmer catalog number 1450-441). The scintillator sheets are melted to filters using a heat block. The filters are then read in a MicroBeta scintillation counter. Binding Ki curves are generated using Activity Base for Screening Data Management and the results are reported as pIC50.

SSTR4 [2] = biological target: T1, SSTR4; test: Inhibition of forskolin stimulated cAMP in CHO-K1 cells overexpressing SSTR4; format: cell-based
Method in brief: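 Read-out is a HTRF LANCE Ultra cAMP competition using Eu-labelled streptavidin and biotin-cAMP, incubated 60 min at room temperature. It followed a 30 min room-temperature exposure of Kreb's Ringer-washed cells to compound plus forskolin. Potency is expressed as pEC50.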

SMILES	SSTR1 Binding pIC50 (SSTR1)	SSTR4 Binding pIC50 (SSTR4 [1])	SSTR4 Activity pEC50 (SSTR4 [2])
CN1C[C@H](NC(=O)C(C)(C)COc2ncccc2OC(F)(F)F)C2(CC2)C1 [Example 150, (R)-2,2-dimethyl-N-(5-methyl-5-azaspiro[2.4]heptan-7-yl)-3-((3-(trifluoromethoxy)pyridin-2-yl)oxy)propanamide]	5.6	7.3	8.2
C[C@H]1C[C@@H](NC(=O)C(C)(C)COc2ncccc2OC(F)(F)F)CCN1C [Example 152, N-((2S,4S)-1,2-dimethylpiperidin-4-yl)-2,2-dimethyl-3-((3-(trifluoromethoxy)pyridin-2-yl)oxy)propanamide]	4.6	6.6	7.0
C[C@@H]1C[C@H](NC(=O)C(C)(C)COc2ncccc2OC(F)(F)F)CCN1C [Example 179, N-((2R,4R)-1,2-dimethylpiperidin-4-yl)-2,2-dimethyl-3-((3-(trifluoromethoxy)pyridin-2-yl)oxy)propanamide]	4.8	7.4	8.1
CC(C)(COc1ccccc1Cl)C(=O)N[C@H]1CCNC[C@@H]1F [Example 187, 3-(2-chlorophenoxy)-N-((3S,4S)-3-fluoropiperidin-4-yl)-2,2-dimethylpropanamide]	4.8	8.4	8.8
CN1CC[C@H](NC(=O)C(C)(C)COc2ccccc2Cl)[C@@H](F)C1 [Example 188, 3-(2-chlorophenoxy)-N-((3S,4S)-3-fluoro-1-methylpiperidin-4-yl)-2,2-dimethylpropanamide]	5.0	7.6	8.2
C[C@H]1CNCC[C@@H]1NC(=O)C(C)(C)COc1ccccc1Cl [Example 190, 3-(2-chlorophenoxy)-2,2-dimethyl-N-((3S,4S)-3-methylpiperidin-4-yl)propanamide]	5.3	7.6	9.8
C[C@@H]1C[C@H](NC(=O)C(F)(F)COc2ncccc2C2CC2)CCN1C [Example 194, 3-((3-cyclopropylpyridin-2-yl)oxy)-N-((2R,4R)-1,2-dimethylpiperidin-4-yl)-2,2-difluoropropanamide]	4.4	7.7	8.4
C[C@H]1CN(C)CC[C@@H]1NC(=O)C(C)(C)COc1ccccc1F [Example 202, N-((3S,4S)-1,3-dimethylpiperidin-4-yl)-3-(2-fluorophenoxy)-2,2-dimethylpropanamide]	5.0	7.0	7.1
C[C@H]1CNCC[C@@H]1NC(=O)C(F)(F)COc1ncccc1C(F)(F)F [Example 208, 2,2-difluoro-N-((3S,4S)-3-methylpiperidin-4-yl)-3-((3-(trifluoromethyl)pyridin-2-yl)oxy)propanamide]	4.4	7.1	8.6
C[C@H]1CNCC[C@@H]1NC(=O)C(F)(F)COc1ncccc1C1CC1 [Example 209, 3-((3-cyclopropylpyridin-2-yl)oxy)-2,2-difluoro-N-((3S,4S)-3-methylpiperidin-4-yl)propanamide]	4.9	7.6	9.2
C[C@H]1CNCC[C@@H]1NC(=O)C(F)(F)COc1ncccc1OC(F)(F)F [Example 210, 2,2-difluoro-N-((3S,4S)-3-methylpiperidin-4-yl)-3-((3-(trifluoromethoxy)pyridin-2-yl)oxy)propanamide]	4.5	7.6	9.1
C[C@@H]1C[C@H](NC(=O)C(F)(F)COc2ncccc2C2CC2)CCN1 [Example 211, 3-((3-cyclopropylpyridin-2-yl)oxy)-2,2-difluoro-N-((2R,4R)-2-methylpiperidin-4-yl)propanamide]	4.8	7.2	8.9
C[C@@H]1C[C@H](NC(=O)C(F)(F)COc2ncccc2OC(F)(F)F)CCN1 [Example 212, 2,2-difluoro-N-((2R,4R)-2-methylpiperidin-4-yl)-3-((3-(trifluoromethoxy)pyridin-2-yl)oxy)propanamide]	4.5	7.4	8.6
CC(C)(COc1ccccc1Cl)C(=O)NC1CCNCC1 [Example 213, 3-(2-chlorophenoxy)-2,2-dimethyl-N-(piperidin-4-yl)propanamide]	4.6	7.6	8.7
C[C@H]1CNCC[C@@H]1NC(=O)C(F)(F)COc1ccccc1Cl [Example 216, 3-(2-chlorophenoxy)-2,2-difluoro-N-((3S,4S)-3-methylpiperidin-4-yl)propanamide]	4.8	7.7	9.4
